Molecular target: unphosphorylated-BTK kinase domain (UP-BTK), GST-tagged human BTK (389-659aa) (Homo sapiens (Human), UniProt Q06187)
Assay: BTK kinase Lanthascreen binding assay
Procedure: BTK Kinase Lanthascreen Binding Assay:
A BTK kinase lanthascreen binding assay monitors compound binding to unphosphorylated-BTK kinase domain (UP-BTK), by competing with a fluorescent labeled tracer. […] Data were analyzed using Xlfit™ version 5.3 from ID Business Solutions (Guildford), Microsoft Excel add-in. pIC50 refers to the negative log of the IC50 in molar.

[1] = negative log of the IC50 in molar, 60 minutes incubation with 50 nM Tracer 236

unphosphorylated-BTK kinase domain (UP-BTK), GST-tagged human BTK (389-659aa), sequence (Q06187 389-659): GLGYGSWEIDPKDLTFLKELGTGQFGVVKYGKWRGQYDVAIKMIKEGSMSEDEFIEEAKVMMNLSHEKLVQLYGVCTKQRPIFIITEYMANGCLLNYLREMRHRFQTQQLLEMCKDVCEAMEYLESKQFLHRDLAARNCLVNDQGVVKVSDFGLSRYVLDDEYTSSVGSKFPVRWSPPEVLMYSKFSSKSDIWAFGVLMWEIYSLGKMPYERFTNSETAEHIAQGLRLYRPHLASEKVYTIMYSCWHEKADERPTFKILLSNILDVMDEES

| SMILES | BTK_I_binding pIC50 [1] | further results |
| --- | --- | --- |
| C=CC(=O)N1CC[C@@H](NC(=O)c2sc3nccc4c3c2NC(=O)N4c2cnc(OCC(C)C)cc2C)C1 (single isomer, unassigned) [Example 779, (R)—N-(1-Acryloylpyrrolidin-3-yl)-5-(*S)-(6-isobutoxy-4-methylpyridin-3-yl)-4-oxo-4,5-dihydro-3H-1-thia-3,5,8-triazaacenaphthylene-2-carboxamide] | 8.0 |  |
| Cc1cc(OC(C)C)ncc1N1C(=O)Nc2c(C(=O)N[C@@H]3CCNC3)sc3nccc1c23 (single isomer, unassigned) [Example 958, (R)-5-(*S)-(6-Isopropoxy-4-methylpyridin-3-yl)-4-oxo-N-(pyrrolidin-3-yl)-4,5-dihydro-3H-1-thia-3,5,8-triazaacenaphthylene-2-carboxamide] |  | BTK_I_binding pIC50 (unphosphorylated-BTK kinase domain, Lanthascreen, 60 minutes incubation, pIC50 = negative log of IC50 in molar): <6 |
| C=CC(=O)N[C@H]1COC[C@H]1NC(=O)c1sc2nccc3c2c1NC(=O)N3c1cnc(Oc2ccccc2)cc1C (stereo in doubt) [Example 745, N-((3*S,4*R)-4-Acrylamidotetrahydrofuran-3-yl)-5-(*S)-(4-methyl-6-phenoxypyridin-3-yl)-4-oxo-4,5-dihydro-3H-1-thia-3,5,8-triazaacenaphthylene-2-carboxamide] | 8.1 |  |
| C=CC(=O)N[C@@H]1COC[C@@H]1NC(=O)c1sc2nccc3c2c1NC(=O)N3c1cnc(Oc2ccccc2)cc1C (stereo in doubt) [Example 752, N-((*3R,*4S)-4-Acrylamidotetrahydrofuran-3-yl)-5-(*S)-(4-methyl-6-phenoxypyridin-3-yl)-4-oxo-4,5-dihydro-3H-1-thia-3,5,8-triazaacenaphthylene-2-carboxamide] | 6.4 |  |
| C=CC(=O)N1C[C@@H](F)C[C@@H](NC(=O)c2sc3nccc4c3c2NC(=O)N4c2ccc(Oc3ccccc3)cc2C)C1 [Example 3, N-((3R,5S)-1-Acryloyl-5-fluoropiperidin-3-yl)-5-(2-methyl-4-phenoxyphenyl)-4-oxo-4,5-dihydro-3H-1-thia-3,5,8-triazaacenaphthylene-2-carboxamide] |  | IC50 (read-out: BTK_I_binding pIC50 (converted)): 12.6 nM |
| O=C(CCCC(=O)NCCCOCCOCCOCCCNC(=O)CCCC[C@H]1SC[C@H]2NC(=O)N[C@H]21)NC/C=C/C(=O)N1CCCC(NC(=O)c2sc3nccc4c3c2NC(=O)N4c2ccc(Oc3ccccc3)cn2)C1 (stereo partly drawn) [Example 780, N^1-(15-oxo-19-((3aR,4R,6aS)-2-oxohexahydro-1H-thieno[3,4-d]imidazol-4-yl)-4,7,10-trioxa-14-azanonadecyl)-N^5-((E)-4-oxo-4-(3-(4-oxo-5-(5-phenoxypyridin-2-yl)-4,5-dihydro-3H-1-thia-3,5,8-triazaacenaphthylene-2-carboxamido)piperidin-1-yl)but-2-en-1-yl)glutaramide] | 6.3 |  |

Further lines, with some results ahead:

| BTK_I_binding pIC50 [1] | SMILES | further results |
| --- | --- | --- |
| 6.4 | C=CC(=O)N1CCC[C@@H](NC(=O)c2sc3nccc4c3c2NC(=O)N4c2ccc(CC(C)C)nc2C)C1 (single isomer, unassigned) [Example 792, (R)—N-(1-Acryloylpiperidin-3-yl)-5-(*S)-(6-isobutyl-2-methylpyridin-3-yl)-4-oxo-4,5-dihydro-3H-1-thia-3,5,8-triazaacenaphthylene-2-carboxamide] |  |
| <6 | C=CC(=O)N1CCC[C@@H](NC(=O)c2sc3nccc4c3c2NC(=O)N4c2ccc(CC(C)C)nc2C)C1 (single isomer, unassigned) [Example 815, (R)—N-(1-Acryloylpiperidin-3-yl)-5-(*R)-(6-isobutyl-2-methylpyridin-3-yl)-4-oxo-4,5-dihydro-3H-1-thia-3,5,8-triazaacenaphthylene-2-carboxamide] |  |

From patent publication US10822348B2, “Inhibitors of Bruton's tyrosine kinase and methods of their use” (JANSSEN PHARMACEUTICA NV, priority 2015, dated 2020)
